Measured values from PubChem BioAssay AID743443 (The Scripps Research Institute Molecular Screening Center, 2014).
The source made the active and inactive calls. No rule for the calls is given here.

target: Sphingosine 1-phosphate receptor 5 (Homo sapiens) (UniProt Q9H228); experiment: S1P5 receptor antagonists, late-stage follow-up, selectivity assay for S1PR3 antagonist project, cell-based, FRET, dose response (AID 743443)
Sequence (Q9H228 whole entry, looked up): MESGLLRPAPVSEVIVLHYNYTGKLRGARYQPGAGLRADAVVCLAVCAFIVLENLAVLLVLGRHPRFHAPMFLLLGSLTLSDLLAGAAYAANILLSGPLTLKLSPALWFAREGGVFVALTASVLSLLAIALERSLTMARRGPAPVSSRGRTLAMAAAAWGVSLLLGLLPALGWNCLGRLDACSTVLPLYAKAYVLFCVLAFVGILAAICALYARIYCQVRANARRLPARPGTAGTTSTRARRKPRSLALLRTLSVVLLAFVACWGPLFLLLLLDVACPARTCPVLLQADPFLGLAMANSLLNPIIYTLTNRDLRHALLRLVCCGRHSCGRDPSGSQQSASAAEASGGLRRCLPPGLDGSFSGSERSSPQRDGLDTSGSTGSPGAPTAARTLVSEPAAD

Row | IC50 | Compound
1 | > 28.2 µM (inactive) | O=C(NC(c1ccccc1)c1nc(-c2ccccc2)no1)c1cccc(Cl)c1 (stereo not given)
2 | > 28.2 µM (inactive) | O=C(NC(c1cccc(Cl)c1)c1nc(-c2ccccc2)no1)c1ccc(Cl)c(Cl)c1 (stereo not given)
3 | > 28.2 µM (inactive) | O=C(NC(c1ccccc1)c1nc(-c2ccccc2)no1)c1ccc(Cl)cc1 (stereo not given)
4 | > 28.2 µM (inactive) | O=C(NC(c1ccccc1)c1nc(-c2ccccc2)no1)c1cccc(Br)c1 (stereo not given)
5 | inactive | O=C(NC(c1ccccc1)c1nc(-c2ccccc2)no1)c1cccc(Cl)n1 (stereo not given)
6 | 5.1 µM | O=C(NC(c1cccc(Cl)c1)c1nc(-c2ccccc2)no1)c1cccc(Cl)c1 (stereo not given)
7 | > 28.2 µM (inactive) | COc1ccc(C(=O)NC(c2ccccc2)c2nc(-c3ccccc3)no2)cc1 (stereo not given)
8 | > 28.2 µM (inactive) | O=C(NC(c1ccc(Cl)c(Cl)c1)c1nc(-c2ccccc2)no1)c1ccccc1 (stereo not given)
9 | > 28.2 µM (inactive) | Cc1ccc(C(=O)NC(c2ccccc2)c2nc(-c3ccccc3)no2)cc1 (stereo not given)

Further lines, the compound ahead of its results:

Row | Compound | IC50
10 | O=C(NC(c1ccc(Cl)cc1)c1nc(-c2ccccc2)no1)c1ccc(Cl)c(Cl)c1 (stereo not given) | > 28.2 µM (inactive)
11 | O=C(NC(c1ccc(Cl)cc1)c1nc(-c2ccccn2)no1)c1cccc(Cl)c1 (stereo not given) | > 28.2 µM (inactive)
12 | N#Cc1ccc(C(=O)NC(c2ccc(Cl)c(Cl)c2)c2nc(-c3ccccc3)no2)cc1 (stereo not given) | inactive
13 | CCc1ccc(C(NC(=O)c2cccc(Cl)c2)c2nc(-c3ccccc3)no2)cc1 (stereo not given) | > 28.2 µM (inactive)
14 | O=C(NC(c1ccc(Cl)cc1)c1nc(-c2ccccc2)no1)c1ccc(Cl)c(Br)c1 (stereo not given) | > 28.2 µM (inactive)
15 | O=C(c1cccc(Cl)c1)N(CCO)C(c1ccc(Cl)c(Cl)c1)c1nc(-c2ccccc2)no1 (stereo not given) | 9.9 µM
16 | O=C(NC(c1cccc(Cl)c1)c1nc(-c2ccccc2)no1)c1cc(Cl)cc(Cl)c1 (stereo not given) | > 28.2 µM (inactive)
17 | O=C(NC(Cc1ccccc1)c1nc(-c2ccccc2)no1)c1cccc(Cl)c1 (stereo not given) | inactive
18 | O=C(NC(c1ccc(Cl)c(Cl)c1)c1nc(-c2ccccc2)no1)c1ccc(Cl)cc1 (stereo not given) | inactive
19 | O=C(NC(c1nc(-c2ccccc2)no1)C1CCOCC1)c1ccc(Cl)c(Cl)c1 (stereo not given) | > 28.2 µM (inactive)
20 | O=C(NC(c1ccc(Cl)cc1)c1nc(-c2ccccc2)no1)c1cccc(Br)c1 (stereo not given) | inactive
21 | O=C(NC(c1ccc(Br)cc1)c1nc(-c2ccccc2)no1)c1ccc(Cl)c(Cl)c1 (stereo not given) | > 28.2 µM (inactive)
22 | O=C(NC(c1ccc(Cl)c(Cl)c1)c1nc(-c2ccccc2)no1)c1cccc(Cl)c1 (stereo not given) | inactive
23 | O=C(NC(c1ccc(Cl)cc1)c1nc(-c2cccc(Cl)c2)no1)c1cccc(Cl)c1 (stereo not given) | > 28.2 µM (inactive)
24 | O=C(NC(c1ccc(Cl)cc1)c1nc(-c2ccccc2)no1)c1cccc(Cl)c1 (stereo not given) | > 28.2 µM (inactive)
25 | O=C(NC(c1ccc(Cl)c(Cl)c1)c1nc(-c2ccccc2)no1)c1ccc(Cl)c(Cl)c1 (stereo not given) | > 28.2 µM (inactive)
